Source: ChEMBL document CHEMBL1201862, “PubChem BioAssay data set” (2004)
Activity calls are given as the source filed them.

Key:
[1] = biological target: T1, Cannabinoid receptor 1 (Homo sapiens, UniProt P21554); assay: SAR analysis of agonists of the Cannabinoid Receptor 1 using an Image-Based Assay - Set 3. [Related pubchem assays (depositor defined):AID1961, AID1965]; type: functional
[2] = biological target: T2, Cannabinoid receptor 2 (Homo sapiens, UniProt P34972); assay: SAR analysis of antagonists of the Cannabinoid Receptor 2 using an Image-Based Assay - Set 2. [Related pubchem assays (depositor defined):AID1961, AID1965]; type: functional
T2 sequence (P34972 whole entry): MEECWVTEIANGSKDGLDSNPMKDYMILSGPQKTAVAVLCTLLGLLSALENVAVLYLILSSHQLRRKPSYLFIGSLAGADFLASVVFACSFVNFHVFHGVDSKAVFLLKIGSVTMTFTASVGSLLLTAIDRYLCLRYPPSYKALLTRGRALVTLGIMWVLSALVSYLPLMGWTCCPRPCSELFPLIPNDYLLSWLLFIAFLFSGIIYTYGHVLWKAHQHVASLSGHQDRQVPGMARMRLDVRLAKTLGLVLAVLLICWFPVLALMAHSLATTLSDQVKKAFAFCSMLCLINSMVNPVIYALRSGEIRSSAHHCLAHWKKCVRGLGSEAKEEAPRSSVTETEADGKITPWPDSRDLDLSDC

[3] = biological target: T3, G-protein coupled receptor 35 (Homo sapiens, UniProt Q9HC97); assay: SAR analysis of Antagonists of the GPR35 Receptor using an Image-Based Assay - Set 4. [Related pubchem assays (depositor defined):[…]]; type: functional
T3 sequence (Q9HC97 whole entry): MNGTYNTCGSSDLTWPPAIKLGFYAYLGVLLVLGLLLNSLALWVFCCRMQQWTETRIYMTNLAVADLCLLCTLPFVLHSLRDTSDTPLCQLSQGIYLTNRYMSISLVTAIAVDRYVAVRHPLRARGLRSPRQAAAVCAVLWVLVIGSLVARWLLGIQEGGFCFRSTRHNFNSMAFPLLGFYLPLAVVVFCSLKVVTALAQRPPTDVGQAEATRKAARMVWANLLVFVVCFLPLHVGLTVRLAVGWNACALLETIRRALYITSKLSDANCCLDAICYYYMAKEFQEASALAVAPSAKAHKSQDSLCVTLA

[4] = biological target: T2, Cannabinoid receptor 2; assay: SAR analysis of agonists of the Cannabinoid Receptor 2 using an Image-Based Assay - Set 2. [Related pubchem assays (depositor defined):AID1961, AID1965]; type: functional
[5] = biological target: T4, G-protein coupled receptor 55 (Homo sapiens, UniProt Q9Y2T6); assay: SAR analysis of selective Agonists of GPR55 using an Image-Based Assay - Set 2. [Related pubchem assays (depositor defined):AID1961, AID1965]; type: functional
T4 sequence (Q9Y2T6 whole entry): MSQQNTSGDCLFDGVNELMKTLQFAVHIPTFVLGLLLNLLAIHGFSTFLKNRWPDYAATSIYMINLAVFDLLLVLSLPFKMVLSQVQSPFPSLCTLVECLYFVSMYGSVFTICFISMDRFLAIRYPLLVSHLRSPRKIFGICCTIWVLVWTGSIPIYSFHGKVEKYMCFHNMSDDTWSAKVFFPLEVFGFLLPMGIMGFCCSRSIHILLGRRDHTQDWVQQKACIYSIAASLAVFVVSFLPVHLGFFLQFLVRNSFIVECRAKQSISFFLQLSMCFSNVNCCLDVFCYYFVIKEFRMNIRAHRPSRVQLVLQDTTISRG

[6] = biological target: T1, Cannabinoid receptor 1; assay: SAR analysis of antagonists of the Cannabinoid Receptor 1 using an Image-Based Assay - Set 3. [Related pubchem assays (depositor defined):AID1961, AID1965]; type: functional
[7] = biological target: T3, G-protein coupled receptor 35; assay: SAR analysis of Agonists of the GPR35 Receptor using an Image-Based Assay - Set 3. [Related pubchem assays (depositor defined):AID1961, AID1965]; type: functional
[8] = biological target: DNA damage-inducible transcript 3 protein (Mus musculus, UniProt P35639); type: functional, Cricetulus griseus
DNA damage-inducible transcript 3 protein, sequence (P35639 whole entry): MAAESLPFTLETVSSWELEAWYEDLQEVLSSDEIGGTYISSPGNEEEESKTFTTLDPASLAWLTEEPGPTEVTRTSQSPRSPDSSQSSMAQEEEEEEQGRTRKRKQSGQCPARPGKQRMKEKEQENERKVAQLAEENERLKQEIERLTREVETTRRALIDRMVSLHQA

[9] = biological target: Sphingosine 1-phosphate receptor 1 (Homo sapiens, UniProt P21453); assay: Fluorescence-based counterscreen assay for S1P4 agonists: Cell-based dose response high throughput screening assay to identify agonists of the Sphingosine 1-Phosphate Receptor 1 (S1P1). [Related pubchem assays (depositor defined):AID1509, AID1523, AID1801, AID463107, AID463118, AID463119, AID463122, AID463123, AID463129, AID463225, AID504400, AID504460]; type: functional
[10] = biological target: T5, Sphingosine 1-phosphate receptor 4 (Homo sapiens, UniProt O95977); assay: Fluorescence dose response cell-based high throughput screening assay for agonists of the Sphingosine 1-Phosphate Receptor 4 (S1P4). [Related pubchem assays: 1509 (Primary screen.), 1523 (Confirmation screen in triplicates.)]; type: functional
T5 sequence (O95977 whole entry): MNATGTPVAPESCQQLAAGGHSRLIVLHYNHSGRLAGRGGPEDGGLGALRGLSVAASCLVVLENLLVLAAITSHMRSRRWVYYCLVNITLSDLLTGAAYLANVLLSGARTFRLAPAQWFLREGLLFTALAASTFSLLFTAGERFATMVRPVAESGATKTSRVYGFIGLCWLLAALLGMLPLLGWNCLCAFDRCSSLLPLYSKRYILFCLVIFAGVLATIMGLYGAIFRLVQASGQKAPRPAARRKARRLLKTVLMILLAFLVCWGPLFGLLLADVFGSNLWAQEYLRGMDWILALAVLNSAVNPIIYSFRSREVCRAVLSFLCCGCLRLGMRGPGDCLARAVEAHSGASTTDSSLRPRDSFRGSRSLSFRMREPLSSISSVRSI

[11] = biological target: T3, G-protein coupled receptor 35; assay: SAR Analysis for the identification of Selective Antagonists of ERK1/2 Activity in GPR35-Overexpressing U2OS Cells. [Related pubchem assays: 2079, 2058 ]; type: functional, cell-based
[12] = biological target: T4, G-protein coupled receptor 55; assay: GPR55 antagonists, SAR follow-up, counter-screen for GPR35 antagonist project, imaging, image-based (AID 2397); type: functional
[13] = biological target: T3, G-protein coupled receptor 35; assay: GPR35 antagonists blocking zaprinast-driven arrestin recruitment, primary screen, imaging, U2OS, beta-arrestin-GFP, zaprinast agonist (AID 2058); type: functional;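 further: antagonist potency meaning inhibition of agonist-induced arrestin redistribution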
[14] = Intein inhibitors as potential Tuberculosis drugs, a cytotoxicity screen. [Related pubchem assays (depositor defined):AID2221, AID2223, AID434968, AID435010, AID449749, AID449750, AID489010]; type: functional
[15] = biological target: Melanocortin receptor 4 (Homo sapiens, UniProt P32245); type: functional, cell-based;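 further: Cell-based assay with luminescence read-out, confirmatory dose-response testing for agonist activity of biased ligands at MC4R; human U2OS cells with tagged receptor and beta-arrestin; potency of agonists that increase receptor coupling to beta-arrestin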
Melanocortin receptor 4, sequence (P32245 whole entry): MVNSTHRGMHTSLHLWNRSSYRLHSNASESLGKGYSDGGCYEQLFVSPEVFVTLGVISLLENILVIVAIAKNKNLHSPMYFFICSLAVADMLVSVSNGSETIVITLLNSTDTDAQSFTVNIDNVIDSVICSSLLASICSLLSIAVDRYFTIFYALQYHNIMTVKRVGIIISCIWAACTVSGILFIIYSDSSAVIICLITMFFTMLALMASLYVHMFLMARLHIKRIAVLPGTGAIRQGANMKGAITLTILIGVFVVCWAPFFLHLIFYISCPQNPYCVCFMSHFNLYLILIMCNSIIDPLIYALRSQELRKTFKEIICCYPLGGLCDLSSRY

[16] = biological target: T6, Protein RecA (Mycobacterium tuberculosis, UniProt P9WHJ3); assay: Fluorescence Cell-Free Homogeneous Dose Retest to Identify Inhibitors of RecA-Intein Splicing Activity. [Related pubchem assays (depositor defined):AID2097, AID2223, AID489010, AID492950]; type: functional
T6 sequence (P9WHJ3 whole entry): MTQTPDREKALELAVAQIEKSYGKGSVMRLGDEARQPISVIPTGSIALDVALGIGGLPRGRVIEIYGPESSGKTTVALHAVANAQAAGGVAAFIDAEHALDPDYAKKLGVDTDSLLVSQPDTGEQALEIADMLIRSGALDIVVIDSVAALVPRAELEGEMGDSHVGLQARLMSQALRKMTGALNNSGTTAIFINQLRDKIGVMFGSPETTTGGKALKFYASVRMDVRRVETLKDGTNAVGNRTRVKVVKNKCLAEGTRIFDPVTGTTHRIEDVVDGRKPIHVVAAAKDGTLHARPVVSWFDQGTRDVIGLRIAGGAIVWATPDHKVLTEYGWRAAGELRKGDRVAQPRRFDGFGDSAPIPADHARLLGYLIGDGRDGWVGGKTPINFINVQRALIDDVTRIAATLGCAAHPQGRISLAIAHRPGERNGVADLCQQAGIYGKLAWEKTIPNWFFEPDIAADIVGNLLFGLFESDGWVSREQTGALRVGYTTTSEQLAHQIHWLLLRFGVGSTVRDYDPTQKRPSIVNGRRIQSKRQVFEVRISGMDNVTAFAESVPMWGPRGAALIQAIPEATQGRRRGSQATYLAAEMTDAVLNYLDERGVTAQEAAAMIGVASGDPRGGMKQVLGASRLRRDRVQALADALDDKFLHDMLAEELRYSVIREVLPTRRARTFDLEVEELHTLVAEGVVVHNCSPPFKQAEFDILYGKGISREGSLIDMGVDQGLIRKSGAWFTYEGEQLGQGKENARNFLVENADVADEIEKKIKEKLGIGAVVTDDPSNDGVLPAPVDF

[17] = biological target: T7, Replicative DNA helicase DnaB (Mycobacterium tuberculosis, UniProt P9WMR3); assay: DnaB intein splicing inhibitors, dose response, biochemical, cell-free fluorescence (AID 449749); type: functional
T7 sequence (P9WMR3 whole entry): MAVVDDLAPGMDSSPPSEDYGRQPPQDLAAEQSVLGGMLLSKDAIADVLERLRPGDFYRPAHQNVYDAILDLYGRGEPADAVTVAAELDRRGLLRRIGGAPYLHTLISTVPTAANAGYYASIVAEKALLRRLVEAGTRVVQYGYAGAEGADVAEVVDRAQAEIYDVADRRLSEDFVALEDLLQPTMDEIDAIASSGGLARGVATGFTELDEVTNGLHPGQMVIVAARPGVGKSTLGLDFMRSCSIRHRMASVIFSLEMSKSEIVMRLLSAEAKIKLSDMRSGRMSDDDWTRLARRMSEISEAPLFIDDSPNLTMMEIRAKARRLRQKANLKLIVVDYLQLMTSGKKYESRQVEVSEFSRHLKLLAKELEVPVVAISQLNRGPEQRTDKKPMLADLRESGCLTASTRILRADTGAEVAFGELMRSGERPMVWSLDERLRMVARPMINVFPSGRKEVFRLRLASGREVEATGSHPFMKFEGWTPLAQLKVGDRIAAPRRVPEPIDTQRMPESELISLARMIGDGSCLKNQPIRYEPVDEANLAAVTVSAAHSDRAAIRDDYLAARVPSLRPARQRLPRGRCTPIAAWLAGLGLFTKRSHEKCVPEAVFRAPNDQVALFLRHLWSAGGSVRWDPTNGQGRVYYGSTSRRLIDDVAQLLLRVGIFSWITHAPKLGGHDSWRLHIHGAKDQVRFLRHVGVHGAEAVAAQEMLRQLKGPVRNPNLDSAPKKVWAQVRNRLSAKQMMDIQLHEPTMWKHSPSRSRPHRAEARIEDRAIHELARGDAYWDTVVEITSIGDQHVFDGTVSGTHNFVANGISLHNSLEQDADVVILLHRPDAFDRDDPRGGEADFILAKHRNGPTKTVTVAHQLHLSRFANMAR

[18] = biological target: T8, Type-1 angiotensin II receptor (Homo sapiens, UniProt P30556); assay: AT1 receptor agonists, dose response, selectivity assay for APJ receptor agonist project, cell-based, uHTS hits (AID 488865); type: functional;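 further: beta-arrestin recruitment to AT1 measured by enzyme fragment complementation luminescence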
T8 sequence (P30556 whole entry): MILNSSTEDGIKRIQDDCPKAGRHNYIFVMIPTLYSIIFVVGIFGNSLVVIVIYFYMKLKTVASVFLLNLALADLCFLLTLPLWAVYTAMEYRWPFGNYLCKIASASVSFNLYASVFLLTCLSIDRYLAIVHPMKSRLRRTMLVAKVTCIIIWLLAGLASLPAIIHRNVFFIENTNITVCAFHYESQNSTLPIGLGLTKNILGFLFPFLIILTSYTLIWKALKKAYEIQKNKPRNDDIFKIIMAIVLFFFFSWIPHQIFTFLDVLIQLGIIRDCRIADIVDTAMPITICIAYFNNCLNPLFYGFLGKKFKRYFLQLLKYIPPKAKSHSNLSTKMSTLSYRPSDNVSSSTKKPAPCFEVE

[19] = biological target: Coagulation factor XII (Homo sapiens, UniProt P00748); type: functional;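 further: activated factor XIIa alpha cleaving a fluorogenic AMC peptide substrate; inhibitor potency from loss of enzyme activity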
Coagulation factor XII, sequence (P00748 20-372 limits assumed): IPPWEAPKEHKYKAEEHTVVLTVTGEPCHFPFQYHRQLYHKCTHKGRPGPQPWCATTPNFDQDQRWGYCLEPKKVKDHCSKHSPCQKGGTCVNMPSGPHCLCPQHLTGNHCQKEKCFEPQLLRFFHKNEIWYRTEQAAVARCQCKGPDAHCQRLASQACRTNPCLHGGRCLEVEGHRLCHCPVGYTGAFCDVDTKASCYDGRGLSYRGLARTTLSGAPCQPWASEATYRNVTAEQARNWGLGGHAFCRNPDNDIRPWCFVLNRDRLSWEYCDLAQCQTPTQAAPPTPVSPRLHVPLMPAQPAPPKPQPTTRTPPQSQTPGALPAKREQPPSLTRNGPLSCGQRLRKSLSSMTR
Coagulation factor XII, sequence (P00748 373-615 limits assumed): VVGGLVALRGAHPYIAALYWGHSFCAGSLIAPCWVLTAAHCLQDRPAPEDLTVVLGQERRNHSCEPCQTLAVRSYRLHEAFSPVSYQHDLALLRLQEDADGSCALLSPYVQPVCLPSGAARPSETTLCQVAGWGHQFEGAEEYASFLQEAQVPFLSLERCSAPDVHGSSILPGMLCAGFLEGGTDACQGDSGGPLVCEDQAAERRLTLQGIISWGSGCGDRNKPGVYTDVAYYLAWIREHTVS

[20] = biological target: Lysine-specific demethylase 4A (Homo sapiens, UniProt O75164); assay: JMJD2A histone demethylase inhibitors, dose response, selectivity assay for GASC-1 inhibitor project, biochemical, DELFIA europium, cherry-picked samples (AID 488840)
Lysine-specific demethylase 4A, sequence (O75164 whole entry): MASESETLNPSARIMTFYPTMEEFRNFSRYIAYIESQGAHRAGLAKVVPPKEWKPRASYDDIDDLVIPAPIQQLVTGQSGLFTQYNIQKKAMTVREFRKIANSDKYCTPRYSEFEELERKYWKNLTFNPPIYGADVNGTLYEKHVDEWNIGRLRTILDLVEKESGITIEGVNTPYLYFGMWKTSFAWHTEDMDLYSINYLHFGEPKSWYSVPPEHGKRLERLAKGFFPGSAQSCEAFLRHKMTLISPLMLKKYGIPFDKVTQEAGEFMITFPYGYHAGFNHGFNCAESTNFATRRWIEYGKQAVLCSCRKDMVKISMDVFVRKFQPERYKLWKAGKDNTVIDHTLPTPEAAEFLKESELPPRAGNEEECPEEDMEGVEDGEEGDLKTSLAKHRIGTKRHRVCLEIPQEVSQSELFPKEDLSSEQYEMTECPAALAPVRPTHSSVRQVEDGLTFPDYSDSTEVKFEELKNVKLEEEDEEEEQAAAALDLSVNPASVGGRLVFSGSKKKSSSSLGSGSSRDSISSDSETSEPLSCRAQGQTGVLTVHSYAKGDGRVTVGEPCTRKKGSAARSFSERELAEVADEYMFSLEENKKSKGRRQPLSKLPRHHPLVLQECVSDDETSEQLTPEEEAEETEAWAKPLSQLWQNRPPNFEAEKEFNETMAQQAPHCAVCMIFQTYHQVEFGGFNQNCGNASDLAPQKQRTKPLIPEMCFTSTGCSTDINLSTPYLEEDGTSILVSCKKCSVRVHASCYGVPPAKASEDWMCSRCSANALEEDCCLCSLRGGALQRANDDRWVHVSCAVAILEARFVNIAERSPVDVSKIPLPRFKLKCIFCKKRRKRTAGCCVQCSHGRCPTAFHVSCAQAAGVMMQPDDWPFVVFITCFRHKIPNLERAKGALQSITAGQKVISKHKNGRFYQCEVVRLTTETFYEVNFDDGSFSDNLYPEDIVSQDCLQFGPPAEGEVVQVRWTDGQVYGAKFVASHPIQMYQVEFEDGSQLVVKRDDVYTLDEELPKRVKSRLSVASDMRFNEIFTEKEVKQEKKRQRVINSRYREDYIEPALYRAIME

[21] = biological target: T9, Delta-type opioid receptor (Homo sapiens, UniProt P41143); assay: HTS Image-Based Screen for Antagonists of the DOR Receptor. [Related pubchem assays (depositor defined):AID1777, AID1785, AID1786, AID2133]; type: functional
T9 sequence (P41143 whole entry): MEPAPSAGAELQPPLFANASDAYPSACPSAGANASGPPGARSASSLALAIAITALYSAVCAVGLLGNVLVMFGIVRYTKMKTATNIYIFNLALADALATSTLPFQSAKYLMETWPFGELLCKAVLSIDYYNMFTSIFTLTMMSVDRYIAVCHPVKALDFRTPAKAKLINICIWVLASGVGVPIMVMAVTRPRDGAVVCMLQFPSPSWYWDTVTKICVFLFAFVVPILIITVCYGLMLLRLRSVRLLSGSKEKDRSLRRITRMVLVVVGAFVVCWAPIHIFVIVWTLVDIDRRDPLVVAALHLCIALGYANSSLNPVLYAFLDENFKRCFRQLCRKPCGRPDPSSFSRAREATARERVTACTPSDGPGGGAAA

[22] = biological target: T10, Kappa-type opioid receptor (Homo sapiens, UniProt P41145); type: functional
T10 sequence (P41145 whole entry): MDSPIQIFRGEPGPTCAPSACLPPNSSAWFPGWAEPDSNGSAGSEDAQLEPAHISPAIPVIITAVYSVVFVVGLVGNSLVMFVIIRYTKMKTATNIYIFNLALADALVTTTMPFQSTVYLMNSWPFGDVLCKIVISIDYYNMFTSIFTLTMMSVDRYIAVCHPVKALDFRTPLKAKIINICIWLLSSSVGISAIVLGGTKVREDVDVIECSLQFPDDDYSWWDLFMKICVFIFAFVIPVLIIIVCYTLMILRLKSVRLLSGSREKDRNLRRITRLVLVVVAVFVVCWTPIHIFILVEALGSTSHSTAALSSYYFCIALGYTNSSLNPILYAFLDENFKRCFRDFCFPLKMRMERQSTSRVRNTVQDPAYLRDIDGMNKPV

[23] = biological target: T11, Latent membrane protein 1 (Human herpesvirus 4 (strain B95-8), UniProt P03230); assay: TES1-eGFP NF-kB reporter inhibition versus Tet-On dsRED, dose response, selectivity assay for LMP1 NF-kB inhibitor project, imaging, HEK293T, dual-color eGFP/dsRED, cherry-picks (AID 588398); type: functional, cell-based
T11 sequence (P03230 whole entry): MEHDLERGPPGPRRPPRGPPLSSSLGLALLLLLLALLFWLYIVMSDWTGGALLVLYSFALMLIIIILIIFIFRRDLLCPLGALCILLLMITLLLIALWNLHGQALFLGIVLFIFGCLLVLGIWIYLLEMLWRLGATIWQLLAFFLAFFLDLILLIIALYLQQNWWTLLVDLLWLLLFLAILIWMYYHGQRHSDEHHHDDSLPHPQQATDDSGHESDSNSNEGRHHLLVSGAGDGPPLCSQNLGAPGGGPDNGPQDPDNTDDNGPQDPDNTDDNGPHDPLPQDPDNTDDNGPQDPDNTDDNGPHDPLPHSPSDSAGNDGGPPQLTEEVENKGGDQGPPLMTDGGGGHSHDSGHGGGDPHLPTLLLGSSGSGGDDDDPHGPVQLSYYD

[24] = biological target: Beta-galactosidase (Escherichia coli, UniProt Q8VNN2); type: functional
[25] = biological target: T10, Kappa-type opioid receptor; type: functional; remark: listed apart in the source
[26] = biological target: Mu-type opioid receptor (Homo sapiens, UniProt P35372); assay: HTS Image-Based Screen for Agonists of the MOR Receptor. [Related pubchem assays (depositor defined):AID1777, AID1785, AID1786, AID2133]; type: functional;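 further: imaging of beta-arrestin GFP recruitment into spots after receptor activation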
Mu-type opioid receptor, sequence (P35372 whole entry): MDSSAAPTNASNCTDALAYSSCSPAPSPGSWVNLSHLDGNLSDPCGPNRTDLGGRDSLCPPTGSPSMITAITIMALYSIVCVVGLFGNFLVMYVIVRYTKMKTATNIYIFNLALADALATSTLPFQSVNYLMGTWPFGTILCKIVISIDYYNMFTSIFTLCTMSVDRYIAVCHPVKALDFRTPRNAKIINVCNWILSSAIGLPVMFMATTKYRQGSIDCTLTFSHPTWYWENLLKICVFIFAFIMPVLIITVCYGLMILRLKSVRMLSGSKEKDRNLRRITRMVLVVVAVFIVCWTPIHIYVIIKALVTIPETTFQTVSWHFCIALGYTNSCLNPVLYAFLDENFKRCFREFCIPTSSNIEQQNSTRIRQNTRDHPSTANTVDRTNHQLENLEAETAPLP

[27] = biological target: T9, Delta-type opioid receptor; assay: HTS Image-Based Screen for Agonists of the DOR Receptor. [Related pubchem assays (depositor defined):AID1777, AID1786, AID2133]; type: functional
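Wherever CC50 is given: cells exposed to compound for 72 hours before luminescence readout.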

T1 sequence (P21554 whole entry): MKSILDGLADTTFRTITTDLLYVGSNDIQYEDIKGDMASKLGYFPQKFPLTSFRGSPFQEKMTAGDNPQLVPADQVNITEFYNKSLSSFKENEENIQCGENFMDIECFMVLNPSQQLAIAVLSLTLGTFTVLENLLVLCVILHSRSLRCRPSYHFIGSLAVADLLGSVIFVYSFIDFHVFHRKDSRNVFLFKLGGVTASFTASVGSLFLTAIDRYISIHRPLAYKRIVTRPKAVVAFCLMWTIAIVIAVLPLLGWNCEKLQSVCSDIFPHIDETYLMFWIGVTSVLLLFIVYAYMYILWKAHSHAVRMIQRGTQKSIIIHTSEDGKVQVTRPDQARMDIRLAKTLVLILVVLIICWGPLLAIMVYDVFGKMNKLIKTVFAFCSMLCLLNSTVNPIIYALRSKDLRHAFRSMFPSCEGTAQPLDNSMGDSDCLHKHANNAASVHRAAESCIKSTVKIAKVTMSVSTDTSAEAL

SMILES: COc1ccc(S(=O)(=O)N2CCOCC2)cc1NC(=O)c1cc2c(s1)CCCCC2
- EC50 [1]: > 32 µM (inactive)
- IC50 [2]: > 32 µM (inactive)
- IC50 [3]: > 32 µM (inactive)
- EC50 [4]: > 32 µM (inactive)
- EC50 [5]: > 32 µM (inactive)
- IC50 [6]: 20.6 µM (inactive)
- EC50 [7]: > 32 µM (inactive)

SMILES: CC(C)(C)C1C/C(=C/c2ccco2)C(=O)/C(=C/c2ccco2)C1 (configuration not stated)
- Absolute IC50 (CHOP) [8]: < 10 µM

SMILES: CCN(c1ccccc1)S(=O)(=O)c1cc([N+](=O)[O-])ccc1N
- EC50 [9]: > 49.8 µM (inactive)
- EC50 [10]: 9.34 µM (active)

SMILES: CC(C)c1ccc(NC(=O)CSc2nc3ccsc3c(=O)n2Cc2ccc(C(=O)O)cc2)cc1
- IC50 [11]: 5.68 µM (active)
- IC50 [12]: 11.7 µM (inactive)
- IC50 [13]: 0.561 µM (active)

SMILES: Cc1ccc(Sc2ccc(NC(=O)CCl)cc2)cc1C
- CC50 [14]: 7.87 µM (active)
- EC50 [15]: > 89.2 µM (inactive)
- EC50 [16]: 0.716 µM (active)
- AC50 [17]: 2.51 µM (active)

SMILES: CCOc1cc2[nH]c(=S)n(CCN3CCC(C)CC3)c(=O)c2cc1OCC
- EC50 [18]: > 100 µM (inactive)

SMILES: Cc1cc(=O)oc2cc(OC(=O)CCN3C(=O)c4ccccc4C3=O)ccc12
- IC50 [19]: > 50 µM (inactive)

SMILES: CCOC(=O)CCCCCC(=O)Nc1ccc2c(c1)CC(=O)N([C@@H](C)CO)C[C@H](C)[C@@H](CN(C)C(=O)Nc1ccc3c(c1)OCO3)O2
- AC50 [20]: > 60 µM (inactive)

SMILES: O=c1[nH]c(Nc2nc3ccccc3o2)nc2c1CCCC2
- IC50 [21]: > 32 µM (inactive)
- IC50 [22]: 5.27 µM (active)
- AC50 [23]: 16.8 µM (active)
- EC50 [24]: > 31.5 µM (inactive)
- IC50 [25]: > 32 µM
- EC50 [26]: > 32 µM (inactive)
- EC50 [27]: > 32 µM (inactive)
